Assay results taken from patent US20260248157A1, “COMPOSITIONS FOR REDUCING METHANE EMISSION” (MOOTRAL INNOVATIONS LIMITED, priority 2022, published 2026).
Like-named read-outs stand apart in the source and are kept apart here.

Tested on: Methanococcus maripaludis
Test: Inhibition of methane production by Methanococcus maripaludis culture (pressure drop after 24 h)
Type: cell-based
Settings: for Fold increase of Compound X combined with bromoform as compared to Compound X alone: bromoform 0.12 μM; for inhibition at 25 µM: Compound X 25 μM alone; for inhibition at 100 µM: Compound X 100 μM alone
Description: For this experiment, bromoform was prepped at 100 mM by adding 8.75 μl bromoform to 991 μl DMSO. This was diluted 10× to generate a 10 mM solution and further diluted to generate 0.12 mM stock solutions. Compound X stock solutions were prepared in DMSO (except for tannic acid, which was diluted in deionized water), to achieve the desired stock solutions required for testing. The experiment was set up by adding 5 ml of M141 medium (https://www.dsmz.de/microorganisms/medium/pdf/DSMZ_Medium141.pdf) to a screw cap Hungate tube followed by the addition of 5 μl Compound X and/or 5 μl bromoform or 5/10 μl DMSO as follows: • Tube 1: DMSO (10 μl) • Tube 2: Bromoform (5 μl, 0.120 mM) (120 nM final)+5 μl DMSO • Tube 3: Compound X (5 μl stock solution)+5 μl DMSO • Tube 4: Bromoform (5 μl 0.120 mM) (120 nM final)+Compound X (5 μl stock solution)
The concentration of Bromoform was fixed at 0.12 μM.
After the addition of the test substances, 500 μl of an overnight M. maripaludis culture was added to each reaction tube. Each tube was gassed with 80% H2/20% CO2 to 240 kPa and incubated at 37° C. for 24 h.
After the 24 h incubation the pressure inside the tube was measured using a manometer. Given that 5 moles of H2/CO2 are consumed to generate 1 mole of CH4 the drop in pressure observed was used to calculate the amount of methane by the control and test reactions from which a percent inhibition was calculated.
Table 1 below summarises the range of concentrations and the fold increase in inhibition of Compound X when tested with bromoform relative to the level of inhibition for Compound X when tested alone.

[1] = Compound X 25 μM + bromoform 0.12 μM, 24 h
[2] = Methanococcus maripaludis, 24 h, read-out: Methane inhibition of Compound X as a sole compound (%)
[3] = Compound X 500 μM + bromoform 0.12 μM, 24 h
[4] = Compound X 1 mM + bromoform 0.12 μM, 24 h
[5] = Compound X 100 μM + bromoform 0.12 μM, 24 h

O=[N+]([O-])OCCCO [3-Nitrooxypropanol]
Methane inhibition in combination with Bromoform (%) (Compound X 0.78 μM-1.56 μM (range tested) + bromoform 0.12 μM, 24 h): 91.3%
Fold increase of Compound X combined with bromoform as compared to Compound X alone (Compound X 0.78 μM-1.56 μM (range tested)): 91.3 fold
inhibition (Methanococcus maripaludis, Compound X 0.78 μM-1.56 μM (range tested) alone, 24 h, read-out: Methane inhibition of Compound X as a sole compound (%)): 1%

CC(C)=CCc1c(O)cc(O)c2c1O[C@H](c1ccc(O)cc1)CC2=O [8-prenylnaringenin]
Methane inhibition in combination with Bromoform (%) (Compound X 12.5 μM + bromoform 0.12 μM, 24 h): 97.2%
Fold increase of Compound X combined with bromoform as compared to Compound X alone (Compound X 12.5 μM): 1.27 fold
inhibition at 12.5 µM (Methanococcus maripaludis, Compound X 12.5 μM alone, 24 h, read-out: Methane inhibition of Compound X as a sole compound (%)): 76.4%

CC(C)=CCc1cc2c(cc1O)O[C@H](c1ccc(O)cc1)CC2=O [Bavachin]
Methane inhibition in combination with Bromoform (%) [1]: 57.4%
Fold increase of Compound X combined with bromoform as compared to Compound X alone (Compound X 25 μM): 57.4 fold
inhibition at 25 µM [2]: 1%

Cc1ccc(C(C)C)cc1O [Carvacrol]
Methane inhibition in combination with Bromoform (%) [3]: 79.6%
Fold increase of Compound X combined with bromoform as compared to Compound X alone (Compound X 500 μM): 1.14 fold
inhibition at 500 µM [2]: 69.6%

O=CC=Cc1ccccc1 [Cinnamaldehyde]
Methane inhibition in combination with Bromoform (%) [4]: 91.7%
Fold increase of Compound X combined with bromoform as compared to Compound X alone (Compound X 1 mM): 91.7 fold
inhibition at 1000 µM (Methanococcus maripaludis, Compound X 1 mM alone, 24 h, read-out: Methane inhibition of Compound X as a sole compound (%)): 1%

CC(C)=CCCC(C)=CC=O [Citral]
Methane inhibition in combination with Bromoform (%) [3]: 96.7%
Fold increase of Compound X combined with bromoform as compared to Compound X alone (Compound X 500 μM): 7.29 fold
inhibition at 500 µM (Methanococcus maripaludis, Compound X 500 μM alone, 24 h, read-out: Methane inhibition of Compound X as a sole compound (%)): 13.3%

CC(C)=CCC/C(C)=C/Cc1cc(-c2coc3cc(O)ccc3c2=O)ccc1O [Corylifol A]
Methane inhibition in combination with Bromoform (%) (Compound X 3.125 μM + bromoform 0.12 μM, 24 h): 96.1%
Methane inhibition of Compound X as a sole compound (%) (Compound X 3.125 μM alone, 24 h): 1%
Fold increase of Compound X combined with bromoform as compared to Compound X alone (Compound X 3.125 μM): 96.1 fold

O=C(O)C(Br)Br [Dibromoacetic acid]
Methane inhibition in combination with Bromoform (%) (Compound X 200 μM + bromoform 0.12 μM, 24 h): 88.1%
Fold increase of Compound X combined with bromoform as compared to Compound X alone (Compound X 200 μM): 88.1 fold
inhibition at 200 µM [2]: 1%

ClC(Br)Br [Dibromochloromethane]
Methane inhibition in combination with Bromoform (%) (Compound X 0.195 μM + bromoform 0.12 μM, 24 h): 92.2%
Fold increase of Compound X combined with bromoform as compared to Compound X alone (Compound X 0.195 μM): 92.2 fold
inhibition at 0.195 µM [2]: 1%

CSSC [Dimethyl disulfide]
Methane inhibition in combination with Bromoform (%) [4]: 43.5%
Fold increase of Compound X combined with bromoform as compared to Compound X alone (Compound X 1 mM): 43.5 fold
inhibition at 1000 µM [2]: 1%

CC(C)=CCC[C@](C)(O[C@@H]1O[C@H](CO[C@@H]2OC[C@H](O)[C@H](O)[C@H]2O)[C@@H](O)[C@H](O)[C@H]1O)[C@H]1CC[C@]2(C)[C@@H]1[C@H](O)C[C@@H]1[C@@]3(C)CC[C@H](O[C@@H]4O[C@H](CO)[C@@H](O)[C@H](O)[C@H]4O[C@@H]4O[C@H](CO)[C@@H](O)[C@H](O)[C@H]4O)C(C)(C)[C@@H]3CC[C@]12C [Ginsenoside Rb2]
Methane inhibition in combination with Bromoform (%) (Compound X 20 μM + bromoform 0.12 μM, 24 h): 66.9%
Methane inhibition of Compound X as a sole compound (%) (Compound X 20 μM alone, 24 h): 44.7%
Fold increase of Compound X combined with bromoform as compared to Compound X alone (Compound X 20 μM): 1.42 fold

CC(C)=CCc1c(O)ccc(C(=O)/C=C/c2ccc(O)cc2)c1O [Isobavachalcone]
Methane inhibition in combination with Bromoform (%) (Compound X 3.125 μM-6.25 μM (range tested) + bromoform 0.12 μM, 24 h): 93.4%
Fold increase of Compound X combined with bromoform as compared to Compound X alone (Compound X 3.125 μM-6.25 μM (range tested)): 1.12 fold
inhibition (Methanococcus maripaludis, Compound X 3.125 μM-6.25 μM (range tested) alone, 24 h, read-out: Methane inhibition of Compound X as a sole compound (%)): 83.4%

CC(C)=CCc1c(-c2ccc(O)cc2O)oc2c3c(cc(O)c2c1=O)OC(C)(C)C=C3 [Morusin]
Methane inhibition in combination with Bromoform (%) (Compound X 1.25 μM-10 μM (range tested) + bromoform 0.12 μM, 24 h): 96.7%
Fold increase of Compound X combined with bromoform as compared to Compound X alone (Compound X 1.25 μM-10 μM (range tested)): 2.16 fold

O=c1c(O)c(-c2ccc(O)c(O)c2)oc2cc(O)cc(O)c12 [Quercetin]
Methane inhibition in combination with Bromoform (%) (Compound X 50 μM-100 μM (range tested) + bromoform 0.12 μM, 24 h): 91.2%
Fold increase of Compound X combined with bromoform as compared to Compound X alone (Compound X 50 μM-100 μM (range tested)): 1.21 fold

C[C@H]1O[C@@H](O[C@H]2CC[C@@]3(C)[C@@H](CC[C@]4(C)[C@@H]3C=CC3=C5CC(C)(C)CC[C@]5(CO)[C@H](O)C[C@]34C)[C@]2(C)CO)[C@H](O)[C@@H](O[C@@H]2O[C@H](CO)[C@@H](O)[C@H](O)[C@H]2O)[C@H]1O [Saikosaponin b2]
Methane inhibition in combination with Bromoform (%) (Compound X 10 μM + bromoform 0.12 μM, 24 h): 55.6%
Methane inhibition of Compound X as a sole compound (%) (Compound X 10 μM alone, 24 h): 1%
Fold increase of Compound X combined with bromoform as compared to Compound X alone (Compound X 10 μM): 55.6 fold

C=C[C@](C)(O)CC[C@@H]1[C@@]2(C)CCCC(C)(C)[C@@H]2CC[C@@]1(C)O [Sclareol]
Methane inhibition in combination with Bromoform (%) [1]: 61.2%
Fold increase of Compound X combined with bromoform as compared to Compound X alone (Compound X 25 μM): 56 fold
inhibition at 25 µM [2]: 1.1%

O=C(OC[C@H]1O[C@@H](OC(=O)c2cc(O)c(O)c(OC(=O)c3cc(O)c(O)c(O)c3)c2)[C@H](OC(=O)c2cc(O)c(O)c(OC(=O)c3cc(O)c(O)c(O)c3)c2)[C@@H](OC(=O)c2cc(O)c(O)c(OC(=O)c3cc(O)c(O)c(O)c3)c2)[C@@H]1OC(=O)c1cc(O)c(O)c(OC(=O)c2cc(O)c(O)c(O)c2)c1)c1cc(O)c(O)c(OC(=O)c2cc(O)c(O)c(O)c2)c1 [Tannic acid]
Methane inhibition in combination with Bromoform (%) [5]: 56.1%
Fold increase of Compound X combined with bromoform as compared to Compound X alone (Compound X 100 μM): 1.16 fold
inhibition at 100 µM [2]: 48.3%

C[C@H]1[C@H](C)CC[C@]2(C(=O)O)CC[C@]3(C)C(=CC[C@@H]4[C@@]5(C)CC[C@H](O)C(C)(C)[C@@H]5CC[C@]43C)[C@H]12 [Ursolic Acid]
Methane inhibition in combination with Bromoform (%) [5]: 85.2%
Fold increase of Compound X combined with bromoform as compared to Compound X alone (Compound X 100 μM): 85.2 fold
inhibition at 100 µM [2]: 1%

COc1cc(O)c(CC=C(C)C)c(O)c1C(=O)/C=C/c1ccc(O)cc1 [Xanthohumol]
Methane inhibition in combination with Bromoform (%) (Compound X 6.25 μM-12.5 μM (range tested) + bromoform 0.12 μM, 24 h): 95.1%
Fold increase of Compound X combined with bromoform as compared to Compound X alone (Compound X 6.25 μM-12.5 μM (range tested)): 1.5 fold
inhibition (Methanococcus maripaludis, Compound X 6.25 μM-12.5 μM (range tested) alone, 24 h, read-out: Methane inhibition of Compound X as a sole compound (%)): 63.6%

Bavachinin
Methane inhibition in combination with Bromoform (%) (Compound X 12.5 μM-100 μM (range tested) + bromoform 0.12 μM, 24 h): 97.2%
Methane inhibition of Compound X as a sole compound (%) (Compound X 12.5 μM-100 μM (range tested) alone, 24 h): 43%
Fold increase of Compound X combined with bromoform as compared to Compound X alone (Compound X 12.5 μM-100 μM (range tested)): 2.26 fold
